{"source": "patent US20040014678A1", "about": "“Prevention of beta-amyloid neurotoxicity by blockade of the ubiquitin-proteasome proteolytoc pathway” (priority 2003, published 2004)", "key": {"rat cortical neurons [1]": {"system": "rat cortical neurons", "assay": "cells", "type": "cell-based", "method": "FIGS. 3A and 3B show inhibition of β-amyloid (β-am) neurotoxicity by lactacystin (lacta) and Leu-Ala. Cell viability is assessed using the MTT assay. The conversion of tetrazolium salts is measured using a spectrophotometer and expressed as absorbance in arbitrary units. […] Lacta inhibits the neurotoxic effect cause by β-am in a concentration-dependent manner (•[formula]•).\n(§1) Hemispheres were separated, and meninges were carefully removed.\nNeurons plated at a density of 0.4×10^6 in 48-multiwell plates were exposed for the appropriate times to the test agents. MTT reduction was used to measure mitochondrial activity as an index of cell viability. The reaction was started by adding 0.4 mg/ml MTT in a PBS solution to the neurons. After 16 h of incubation at 37° C., 100 μl of pure dimethyl sulfoxide is added to each well. After an additional 12 h of incubation, absorbance values at 570 nm were determined with an automatic microplate reader, using 630 nm as a reference wavelength. Experiments were done in 48-multiwell plates allowing eight samples for each experimental point. Experiments were repeated at least three times."}, "rat cortical neurons [2]": {"system": "rat cortical neurons", "assay": "Morphologic analysis of β-amyloid-induced cortical neuron damage (phase-contrast)", "conditions": "for neuronal viability, agent alone: without β-amyloid", "protocol": "FIGS. 1A, 1B, 1C and 1D provide morphologic analysis of β-amyloid-induced cortical neuron damage shown in representative phase-contrast images of cortical neurons at 13 days in vitro. Cells are treated for 5 days with vehicle (FIG. 1A), 50 nM lactacystin (FIG. 1B), 20 μM β-amyloid (FIG. 1C), or 20 μM β-amyloid+50 nM lactacystin (FIG. 1D).\n(§2) Neurons were prepared from 17-day-old rat fetuses, according to a previously published protocol (Hampson et al. (1998)). In brief, the fetuses were decapitated, the brains were dissected and placed in phosphate-buffered saline (PBS) containing 4.5 g/L glucose. Hemispheres were separated, and meninges were carefully removed. Cortical tissues were freed from subcortical structures and cut into small fragments. Tissues were incubated with papain activated with cysteine for 10 min at 37° C. Papain was neutralized with a solution of ovomucoid and bovine serum albumin. Finally, tissues were mechanically dissociated until a single-cell suspension was obtained. Cells were plated in poly-D-lysine-coated 3.5-cm-diameter Petri dishes, 48-multiwell plates, or tissue culture flasks."}, "rat cortical neurons [3]": {"system": "rat cortical neurons", "protocol": "Cells are treated with the agents indicated in the respective heading (e.g. LACTA for lactacystin) and then stained with fluorescein and propidium. […] Data are mean±SE (bars) values.\nas §2\nViability of cortical neurons was assessed with a propidium iodide exclusion test and fluorescein diacetate incorporation assessment, according to a previously published protocol. (Favit et al. (1992)). Rat cortical neurons seeded on 3.5-cm-diameter dishes were treated, washed with PBS, and incubated with a PBS solution containing 36 μM fluroescein diacetate and 7 μM propidium iodide for 3 min at room temperature. Cell viability was assessed by counting 100 cells per microscope field (using a 20× lens) for the number of fluorescein-labeled neurons versus propidium-positive cells. Experiments were conducted in duplicate and repeated at least three times. Statistical validity was assessed by ANOVA followed by a post hoc test."}, "[4]": {"system": "ubiquitination of neuronal proteins", "assay": "Western blot of ubiquitinated neuronal proteins", "type": "cell-based, rat", "conditions": "for ubiquitinated proteins, agent alone: 72 h", "method": "Lactacystin alone (lane 3), by blocking proteasome activity, causes an accumulation of ubiquitinated protein, although to a lesser extent than β-amyloid.\nas §1\nWestern blot analysis was performed as previously described (Favit et al., 1998) with the following modifications. Proteins were extracted from neuronal pellets in a PBS solution containing 1 mg/ml leupeptin, 1 mg/ml pepstatin, 1 mg/ml chymostatin, 1 mg/ml antipain, and 0.2 mM phenylmethylsulfonyl fluoride. (Vannucci et al. (1998)). The crude homogenate was balanced with sample buffer containing 0.5 M Tris-HCl (pH 6.8), 10% glycerol, 2% sodium dodecyl sulfate, and 0.5% 2-mercaptoethanol to a final volume of 20 μl with a total protein concentration of […]. Sodium dodecyl sulfate-polyacrylamide gel electrophoresis was carried out in a 4-20% acrylamide gradient gel 1.5 mm thick. (Novex, San Diego, Calif., U.S.A.). Twenty micrograms per lane of protein of the crude homogenate was electrophoresed and transferred overnight onto a nitrocellulose membrane (Schleicher & Schuell). The membrane was blocked in 1% bovine serum albumin in 95% Tris-buffered saline for 1 h. Immunodetection of ubiquitin was obtained by exposing the membrane to an anti-ubaiqtin polyclonal primary antibody at 1:1,000 dilution for 1 h. Blots were then incubated with an anti-mouse alkaline phosphatase-conjugated secondary antibody for 1 h. Finally, the nitrocellulose was stained with a solution containing 0.1 M Tris-HCl (pH 9.6), 0.001 M MgCl2, 1% nitro blue terrazolium (Pierce), and 1% 5-bromo-4chloro-3-indolyl phosphate toluidine salt (Pierce). All reactions were carried out at room temperature. At least three independent sets of experiments were conducted.\nBlocking ubiquitination with Leu-Ala or inhibiting proteasome activity with lactacystin prevent β-amyloid-induced neurotoxicity. […] Therefore, the ability of β-amyloid to cause ubiquitination of neuronal proteins was tested. Neurons were incubated with β-amyloid for 72 h in the presence of 50 nM lactacystin or 2 mM Leu-Ala and harvested. […] As a consequence of this, the target proteins are not degraded by the proteasome."}}, "note": "“Also recorded” adds a separate entry of the source. Residues, ends and D or L forms follow the SMILES beside them."}
{"compound": "CC(C)C[C@H](NC(=O)[C@H](C)N)C(=O)O", "note": "[Ala-Leu] (H-Ala-Leu-OH)", "values": [{"measurement": "reduction of β-amyloid toxicity", "setting": "rat cortical neurons [1]; reverse dipeptide, data not shown", "value": "does not cause any reduction of β-amyloid toxicity"}]}
{"compound": "CC(=O)N[C@@H](CSC(=O)[C@]1([C@@H](O)C(C)C)NC(=O)[C@H](C)[C@@H]1O)C(=O)O", "note": "[lactacystin]", "values": [{"measurement": "β-amyloid-induced morphologic degeneration of neurons", "setting": "rat cortical neurons [2]; 50 nM lactacystin with 20 μM β-amyloid, 5 days", "value": "prevented β-amyloid-induced morphologic degeneration of neurons"}, {"measurement": "neuronal viability, agent alone", "setting": "rat cortical neurons [2]", "value": "did not affect neuronal viability"}, {"measurement": "β-amyloid-induced propidium staining", "setting": "rat cortical neurons [3]; β-amyloid combined with 50 nM lactacystin", "value": "reversed to near control levels"}, {"measurement": "cell damage caused by β-am", "setting": "rat cortical neurons [1]; 50 nM lacta with β-am", "value": "clear reduction of the cell damage caused by β-am"}, {"measurement": "EC50", "setting": "rat cortical neurons [1]; Rattus norvegicus, Cortical neurone, in presence of β-amyloid, read-out: apparent EC50 for blocking β-amyloid toxicity", "value": 30, "unit": "nM"}, {"measurement": "prevention of toxic effect of β-amyloid at the highest concentration tested", "setting": "rat cortical neurons [1]; highest concentration tested", "value": "almost entirely prevents the toxic effect of β-amyloid"}, {"measurement": "concentration at which the protective effect is already statistically significant", "setting": "rat cortical neurons [1]; in presence of β-amyloid", "value": 25, "unit": "nM"}, {"measurement": "concentration at which the protective effect reaches an apparent plateau", "setting": "rat cortical neurons [1]; in presence of β-amyloid", "value": 500, "unit": "nM"}, {"measurement": "ubiquitinated proteins, agent alone", "setting": "[4]", "value": "increases the presence of ubiquitinated protein"}, {"measurement": "β-amyloid-induced ubiquitination", "setting": "[4]; β-amyloid 72 h with 50 nM lactacystin", "value": "not affected"}]}
{"compound": "CC(C)C[C@H](N)C(=O)N[C@@H](C)C(=O)O", "note": "[Leu-Ala, leucine-alanine dipeptide] (H-Leu-Ala-OH)", "values": [{"measurement": "neuronal viability, agent alone", "setting": "rat cortical neurons [2]", "value": "did not affect neuronal viability"}, {"measurement": "cell damage caused by β-am", "setting": "rat cortical neurons [1]; 2 mM Leu-Ala with β-am", "value": "clear reduction of the cell damage caused by β-am"}, {"measurement": "ubiquitinated proteins, agent alone", "setting": "[4]", "value": "does not affect protein ubiquitination in control cells"}, {"measurement": "β-amyloid-induced ubiquitination", "setting": "[4]; β-amyloid 72 h with 2 mM Leu-Ala", "value": "markedly reduced; also recorded: completely prevented"}]}
{"compound": "β-Amyloid 1-40 [β-amyloid fragment 1-40]", "values": [{"measurement": "fluorescein sequestration", "setting": "rat cortical neurons [3]", "value": "not able to sequester fluorescein"}, {"measurement": "number of viable cells (cell counts)", "setting": "rat cortical neurons [3]", "value": "significantly reduces the number of viable cells"}, {"measurement": "propidium iodide staining", "setting": "rat cortical neurons [3]", "value": "clear staining with propidium iodide"}, {"measurement": "viable cells (MTT)", "setting": "rat cortical neurons [1]", "value": "greatly decreases viable cells"}, {"measurement": "ubiquitinated proteins, agent alone", "setting": "[4]", "value": "marked increase of ubiquitination of multiple proteins"}]}
